Assay results: ChEMBL document CHEMBL1201862, “PubChem BioAssay data set” (2004)
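Method: 48-hour compound exposure of cells in 96-well plates, five concentrations, linear interpolation of endpoints. GI50 = concentration required for 50% inhibition of growth.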 The source made the active and inactive calls. No stated cut-off is given here; in the data, active = GI50 up to about 1.1 µM and inactive = higher.

Legend:
Test in all cases: NCI anticancer screen, dose series, 48 h
U-251 = system: U-251
786-0 = system: 786-0
XF498 = system: XF498
ACHN = system: ACHN
DMS-273 = system: DMS-273
NCI-H460 = system: NCI-H460
SW-620 = system: SW-620
SF-295 = system: SF-295
HCT-15 = system: HCT-15
RXF 393 = system: RXF 393
NCI-H522 = system: NCI-H522
HL-60 = system: HL-60
SN12C = system: SN12C
KM-20L2 = system: KM-20L2
COLO 205 = system: COLO 205
Malme-3M = system: Malme-3M
M19-MEL = system: M19-MEL
IGROV-1 = system: IGROV-1
EKVX = system: EKVX
HOP-18 = system: HOP-18
NCI-H226 = system: NCI-H226
SK-MEL-2 = system: SK-MEL-2
SK-MEL-28 = system: SK-MEL-28
HT-29 = system: HT-29
TK-10 = system: TK-10
DMS-114 = system: DMS-114
KM12 = system: KM12
M14 = system: M14
NCI-H23 = system: NCI-H23
DLD-1 = system: DLD-1
UO-31 = system: UO-31
SR = system: SR
K562 = system: K562
RPMI-8226 = system: RPMI-8226
OVCAR-5 = system: OVCAR-5
CCRF-CEM = system: CCRF-CEM
HOP-62 = system: HOP-62
A498 = system: A498
HOP-92 = system: HOP-92
SF-268 = system: SF-268
MOLT-4 = system: MOLT-4
UACC-257 = system: UACC-257
OVCAR-8 = system: OVCAR-8
SF-539 = system: SF-539
SNB-78 = system: SNB-78
LXFL 529 = system: LXFL 529
SNB-19 = system: SNB-19
UACC-62 = system: UACC-62
CAKI-1 = system: CAKI-1
SNB-75 = system: SNB-75
OVCAR-4 = system: OVCAR-4
SK-MEL-5 = system: SK-MEL-5
SK-OV-3 = system: SK-OV-3
LOX IMVI = system: LOX IMVI
OVCAR-3 = system: OVCAR-3
RXF 631 = system: RXF 631
A549 = system: A549
HCC 2998 = system: HCC 2998
HCT-116 = system: HCT-116

## O=C1NC2OC(CO)C(O)C(O1)C2O (stereo unspecified)
U-251
  GI50: > 100 µM (inactive)
786-0
  GI50: > 100 µM (inactive)
XF498
  GI50: > 100 µM (inactive)
ACHN
  GI50: > 100 µM (inactive)
DMS-273
  GI50: > 100 µM (inactive)
NCI-H460
  GI50: > 100 µM (inactive)
SW-620
  GI50: > 100 µM (inactive)
SF-295
  GI50: > 100 µM (inactive)
HCT-15
  GI50: > 100 µM
RXF 393
  GI50: > 100 µM (inactive)
NCI-H522
  GI50: > 100 µM (inactive)
HL-60
  GI50: > 100 µM (inactive)
SN12C
  GI50: > 100 µM (inactive)
KM-20L2
  GI50: > 100 µM (inactive)
COLO 205
  GI50: > 100 µM (inactive)
Malme-3M
  GI50: > 100 µM (inactive)
M19-MEL
  GI50: > 100 µM (inactive)
IGROV-1
  GI50: > 100 µM (inactive)
EKVX
  GI50: > 100 µM (inactive)
HOP-18
  GI50: > 100 µM (inactive)
NCI-H226
  GI50: > 100 µM (inactive)
SK-MEL-2
  GI50: > 100 µM (inactive)
SK-MEL-28
  GI50: > 100 µM (inactive)
HT-29
  GI50: > 100 µM (inactive)
TK-10
  GI50: > 100 µM (inactive)
DMS-114
  GI50: > 100 µM (inactive)
KM12
  GI50: > 100 µM (inactive)
M14
  GI50: > 100 µM (inactive)
NCI-H23
  GI50: > 100 µM (inactive)
DLD-1
  GI50: > 100 µM (inactive)
UO-31
  GI50: > 100 µM (inactive)
SR
  GI50: > 100 µM (inactive)
K562
  GI50: > 100 µM (inactive)
RPMI-8226
  GI50: > 100 µM (inactive)
OVCAR-5
  GI50: > 100 µM (inactive)
CCRF-CEM
  GI50: > 100 µM (inactive)
HOP-62
  GI50: > 100 µM (inactive)
A498
  GI50: > 100 µM (inactive)
HOP-92
  GI50: > 100 µM (inactive)
SF-268
  GI50: > 100 µM (inactive)
MOLT-4
  GI50: > 100 µM (inactive)
UACC-257
  GI50: > 100 µM (inactive)
OVCAR-8
  GI50: > 100 µM (inactive)
SF-539
  GI50: > 100 µM (inactive)
SNB-78
  GI50: > 100 µM (inactive)
LXFL 529
  GI50: > 100 µM (inactive)
SNB-19
  GI50: > 100 µM (inactive)
UACC-62
  GI50: > 100 µM (inactive)
CAKI-1
  GI50: > 100 µM (inactive)
SNB-75
  GI50: > 100 µM (inactive)
OVCAR-4
  GI50: > 100 µM (inactive)
SK-MEL-5
  GI50: > 100 µM (inactive)
SK-OV-3
  GI50: > 100 µM (inactive)
LOX IMVI
  GI50: > 100 µM (inactive)
OVCAR-3
  GI50: > 100 µM (inactive)

## Cc1c(Cl)cccc1NC(=O)/C(Cl)=C(\Cl)C(=O)O
U-251
  GI50: 18.5 µM (inactive)
786-0
  GI50: 18.4 µM (inactive)
RXF 631
  GI50: 24.8 µM (inactive)
ACHN
  GI50: 17.5 µM (inactive)
DMS-273
  GI50: 20.9 µM (inactive)
NCI-H460
  GI50: > 100 µM (inactive)
SW-620
  GI50: 19.4 µM (inactive)
SF-295
  GI50: 19.4 µM (inactive)
HCT-15
  GI50: 16.4 µM
RXF 393
  GI50: 19.9 µM (inactive)
NCI-H522
  GI50: 2.1 µM (inactive)
SN12C
  GI50: 17.4 µM (inactive)
KM-20L2
  GI50: 21.6 µM (inactive)
COLO 205
  GI50: 9.4 µM (inactive)
Malme-3M
  GI50: 17.8 µM (inactive)
M19-MEL
  GI50: 17 µM (inactive)
A549
  GI50: 19.5 µM (inactive)
IGROV-1
  GI50: 19.5 µM (inactive)
EKVX
  GI50: > 10 µM (inactive)
HOP-18
  GI50: 17.5 µM (inactive)
NCI-H226
  GI50: 20.7 µM (inactive)
SK-MEL-2
  GI50: 19.8 µM (inactive)
SK-MEL-28
  GI50: 20.5 µM (inactive)
HT-29
  GI50: 19.2 µM (inactive)
TK-10
  GI50: 20.9 µM (inactive)
DMS-114
  GI50: 21.2 µM (inactive)
KM12
  GI50: 17.3 µM (inactive)
M14
  GI50: 16.1 µM (inactive)
NCI-H23
  GI50: 19.5 µM (inactive)
DLD-1
  GI50: 18.2 µM (inactive)
UO-31
  GI50: 18.7 µM (inactive)
SR
  GI50: 5.26 µM (inactive)
K562
  GI50: 6.19 µM (inactive)
RPMI-8226
  GI50: 11.8 µM (inactive)
OVCAR-5
  GI50: 16.9 µM (inactive)
CCRF-CEM
  GI50: 4.14 µM (inactive)
HOP-62
  GI50: 31.8 µM (inactive)
HCC 2998
  GI50: 20.3 µM (inactive)
A498
  GI50: 45.1 µM (inactive)
HOP-92
  GI50: 17.4 µM (inactive)
SF-268
  GI50: 22.6 µM (inactive)
MOLT-4
  GI50: 7.43 µM (inactive)
UACC-257
  GI50: 19.3 µM (inactive)
SF-539
  GI50: 17 µM (inactive)
SNB-78
  GI50: 20 µM (inactive)
LXFL 529
  GI50: 19.8 µM (inactive)
SNB-19
  GI50: 44.8 µM (inactive)
UACC-62
  GI50: 13.2 µM (inactive)
CAKI-1
  GI50: 17.3 µM (inactive)
SNB-75
  GI50: 18.7 µM (inactive)
OVCAR-4
  GI50: 16.9 µM (inactive)
HCT-116
  GI50: 14.2 µM (inactive)
SK-MEL-5
  GI50: 20.5 µM (inactive)
SK-OV-3
  GI50: 18.9 µM (inactive)
LOX IMVI
  GI50: 18.7 µM (inactive)
OVCAR-3
  GI50: 19 µM (inactive)
